According to US5053070A, “Pyrimidine derivatives, preparation processes thereof, herbicide containing the same, and herbicidal compositions containing the same along with other active ingredient” (Mitsui Toatsu Chemicals, Incorporated, priority 1988, dated 1991):

Key:
Type in all cases: in vivo
cotton = assay: Upland foliar application test (Test 3), crop injury; settings: 30 g ai/a, foliar spray at 2-3 leaves, 30th day
Description: (§1) Resin-made 1/10000-are pots were filled with the soil of an upland field. Redroot pigweed, common lambsquarters, foxtail meadow, johnsongrass, barnyardgrass, green foxtail, large crabgrass, soybean, peanut and cotton were separately seeded and were allowed to germinate in a green house. When each plant grew to the stage of 2-3 leaves, an emulsion formulated from a predetermined amount of each test compound in a similar manner to the method described in Formulation Example 11 was diluted with water to a predetermined dilution rate and then sprayed at an application rate equal to 5 l per are onto the foliage of each plant by means of a pressure-operated ULV (ultra low volume) sprayer. Influence to the crops and weeds were observed on the 30th day after the spray of the herbicides. The results are shown in Table 4 in which the degree of damages of each test plant and the degree of injury to each crop are shown in a similar manner to Test 2.

peanut = assay: as above; settings: 30 g ai/a, foliar spray at 2-3 leaves, 30th day
Description: as §1

soybean = assay: as above; settings: 30 g ai/a, foliar spray at 2-3 leaves, 30th day
Description: as §1

Sagittaria pygmaea [1] = assay: Treatment of soil under submerged condition, pre-emergence (Test 4); settings: 30 g ai/a granule, 30 days later
Description: (§2) 1/5000-are Wagner pots were filled with soil. Seeds or tubers of barnyardgrass, Monochoria vaginalis, bulrush, Sagittaria pygmaea, Cyperus seroylnus and Eleocharis kuroguwai were seeded or planted under submerged condition. Two pairs of rice seedlings (2-3 leaf stage), which had been reared in advance, were transplanted to each pot and were allowed to germinate in a green house. Each pair consisted of two rice seedlings. One day later (before emergence of weeds), each pot was treated with a granule which had been prepared by processing a predetermined amount of the test composition in accordance with a similar method to the method described in Formulation Example 9. The state of emergence of weeds and the state of injury of rice were observed 30 days later.
(§3) In the table, the degrees of damages of the test plants and the degrees of injury of rice are shown in a similar manner to Example 2.

barnyardgrass [2] = assay: as above; settings: 30 g ai/a granule, 30 days later
Description: as §2, §3

bulrush [3] = assay: as above; settings: 30 g ai/a granule, 30 days later
Description: as §2, §3

Sagittaria pygmaea [4] = assay: Treatment of soil under submerged condition, post-emergence (Test 5); settings: 30 g ai/a granule, 30 days later
Description: as §2, with “serroylnus” for “seroylnus”, “grow” for “germinate”, “When the barnyardgrass grew to two-leaf stage,” for “One day later (before emergence of weeds),”
(§4) In the table, the degrees of damages of the test plants and the degrees of injury of the rice are shown in a similar manner to Example 2.

barnyardgrass [5] = assay: as above; settings: 30 g ai/a granule, post-emergence (barnyardgrass two-leaf stage), 30 days later
Description: as §2, with “serroylnus” for “seroylnus”, “grow” for “germinate”, “When the barnyardgrass grew to two-leaf stage,” for “One day later (before emergence of weeds),”
as §4

bulrush [6] = assay: as above; settings: 30 g ai/a granule, 30 days later
Description: as §2, with “serroylnus” for “seroylnus”, “grow” for “germinate”, “When the barnyardgrass grew to two-leaf stage,” for “One day later (before emergence of weeds),”
as §4

green foxtail = assay: Upland soil application test (Test 2); settings: 30 g ai/a, soil spray before emergence, 30 days later
Description: (§5) Resin-made 1/2500-are pots were filled with the soil of an upland field. After they were fertilized, soybean, peanut and cotton were seeded and 2-3 cm soil covering was applied. Seeds of redroot pigweed, common lambsquarters, barnyardgrass, green foxtail, large crabgrass, foxtail meadow and johnsongrass had been uniformly mixed with the soil. They were allowed to germinate in a green house. One day later (before emergence of weeds), a wettable powder prepared from a predetermined amount of each test compound in a similar manner to the method described in Formulation Example 1 was diluted with water and then sprayed evenly at an application rate equal to 10 l per are onto the surface of the soil by means of a pressure-operated ULV (ultra low volume) sprayer. Influence to the crops and weeds were observed 30 days later. The results are shown in Table 3, in which the degree of damages of each test plant and the degree of injury to each crop were determined by comparing the air-dried weights of the test plant and crop with those of the corresponding plant and crop in untreated pots and are shown in accordance with the following standard: […]

johnsongrass = assay: Upland soil application test (Test 2); settings: 30 g ai/a, soil spray before emergence, 30 days later
Description: as §5

redroot pigweed = assay: Upland soil application test (Test 2); settings: 30 g ai/a, soil spray before emergence, 30 days later
Description: as §5

foxtail meadow = assay: Upland soil application test (Test 2); settings: 30 g ai/a, soil spray before emergence, 30 days later
Description: as §5

barnyardgrass [7] = assay: Upland soil application test (Test 2); settings: 30 g ai/a, soil spray before emergence, 30 days later
Description: as §5

large crabgrass = assay: Upland soil application test (Test 2); settings: 30 g ai/a, soil spray before emergence, 30 days later
Description: as §5

common lambsquarters = assay: Upland soil application test (Test 2); settings: 30 g ai/a, soil spray before emergence, 30 days later
Description: as §5

rice = assay: Treatment of soil under submerged condition, pre-emergence (Test 4), injury; settings: 30 g ai/a granule, 30 days later
Description: as §2, §3

| Structure (SMILES) | Injury Cotton (cotton) | Injury Peanut (peanut) | Injury Soybean (soybean) | Herbicidal effects Sagittaria Pygmaea (Sagittaria pygmaea [1]) | Herbicidal effects Barnyardgrass (barnyardgrass [2]) | Herbicidal effects Bulrush (bulrush [3]) | Herbicidal effects Sagittaria Pygmaea (Sagittaria pygmaea [4]) | Herbicidal effects Barnyardgrass (barnyardgrass [5]) | Herbicidal effects Bulrush (bulrush [6]) | Herbicidal effects Green foxtail (green foxtail) | Herbicidal effects Johnsongrass (johnsongrass) | Herbicidal effects Redroot pigweed (redroot pigweed) | Herbicidal effects Foxtail meadow (foxtail meadow) | Herbicidal effects Barnyardgrass (barnyardgrass [7]) | Herbicidal effects Large crabgrass (large crabgrass) | Herbicidal effects Common lambsquarters (common lambsquarters) | Injury Rice (rice) |
| --- | --- | --- | --- | --- | --- | --- | --- | --- | --- | --- | --- | --- | --- | --- | --- | --- | --- |
| COc1cc(OC)nc(Oc2ccccc2C=NOCC=Cc2ccc(C)cc2)n1 [compound 36] | 0 (91-100 (No damages)) | 0 (91-100 (No damages)) | 0 (91-100 (No damages)) | 5 (0-5 (Death)) | 4 (6-10 (Severe damages)) | 4 (6-10 (Severe damages)) | 4 (6-10 (Severe damages)) | 5 (0-5 (Death)) | 5 (0-5 (Death)) | 5 (0-5 (Death)) | 5 (0-5 (Death)) | 4 (6-10 (Severe damages)) | 5 (0-5 (Death)) | 5 (0-5 (Death)) | 5 (0-5 (Death)) | 4 (6-10 (Severe damages)) | 0 (91-100 (No damages)) |
| CCc1ccc(C=CCON=Cc2ccccc2Oc2nc(OC)cc(OC)n2)cc1 [compound 37] | 0 (91-100 (No damages)) | 0 (91-100 (No damages)) | 0 (91-100 (No damages)) | 4 (6-10 (Severe damages)) | 4 (6-10 (Severe damages)) | 4 (6-10 (Severe damages)) | 4 (6-10 (Severe damages)) | 5 (0-5 (Death)) | 5 (0-5 (Death)) | 5 (0-5 (Death)) | 5 (0-5 (Death)) | 4 (6-10 (Severe damages)) | 5 (0-5 (Death)) | 4 (6-10 (Severe damages)) | 5 (0-5 (Death)) | 4 (6-10 (Severe damages)) | 0 (91-100 (No damages)) |
| COc1cc(OC)nc(Oc2ccccc2C=NOCc2ccc(C)cc2)n1 [compound 19] | 0 (91-100 (No damages)) | 0 (91-100 (No damages)) | 0 (91-100 (No damages)) | 4 (6-10 (Severe damages)) | 4 (6-10 (Severe damages)) | 4 (6-10 (Severe damages)) | 3 (11-40 (Medium damages)) | 4 (6-10 (Severe damages)) | 4 (6-10 (Severe damages)) | 4 (6-10 (Severe damages)) | 3 (11-40 (Medium damages)) | 3 (11-40 (Medium damages)) | 4 (6-10 (Severe damages)) | 4 (6-10 (Severe damages)) | 3 (11-40 (Medium damages)) | 4 (6-10 (Severe damages)) | 0 (91-100 (No damages)) |
